From article PMC8348110, “A Novel Peptide Derived from the Transmembrane Domain of Romo1 Is a Promising Candidate for Sepsis Treatment and Multidrug-Resistant Bacteria” (International Journal of Molecular Sciences, 2021)
≈ marks a conversion by molar mass, not a printed value. Residues, ends and D or L forms follow the SMILES beside them.

Assays:
[1] = tested on: Carbapenem-resistant P. aeruginosa (CRPA), clinical isolate; format: cell-based, Pseudomonas aeruginosa; conditions: 1 h
Description: Acinetobacter baumannii (ATCC 19606), B. subtilis (ATCC 6633), E. aerogenes (ATCC 13048), E. coli (ATCC 25922), E. faecalis (ATCC 19433), E. faecium (ATCC 19434), K. pneumoniae (ATCC 13883), P. aeruginosa (ATCC 27853), S. aureus (ATCC 29213), S. sindenensis (ATCC 23963), and MRSA (ATCC 33591) were purchased from the American Type Culture Collection (ATCC; Gaithersburg, MD, USA). Streptococcus pneumoniae (NCCP 14585), vancomycin-resistant E. faecium (NCCP 11522), and vancomycin-resistant S. aureus (NCCP 15872) were purchased from the National Culture Collection for Pathogens (NCCP; Cheongju, Korea). The isolation and use of carbapenem-resistant bacterial strains from a patient were approved (2015AN0129) by the Institutional Review Board (IRB) of Korea University Hospital. CRPA, CRKP, and CRAB were clinically isolated in Korea University Hospital (Seoul, Korea). CRPA was confirmed to be resistant to piperacillin, piperacillin-tazobactam, ceftazidime, imipenem, meropenem, gentamicin, amikacin, and ciprofloxacin. CRAB was confirmed to be resistant to piperacillin, piperacillin-tazobactam, cefepime, ceftazidime, imipenem, meropenem, gentamicin, amikacin, and ciprofloxacin. CRKP was confirmed to be resistant to piperacillin-tazobactam, cefepime, ceftazidime, imipenem, gentamicin, and ciprofloxacin. All strains were stored at –80 °C in 50% glycerol and 50% Luria-Bertani (LB) or tryptic soy (TS) broth, grown on LB or TS plates, and aerated at 37 °C.
(§1) The minimum bactericidal concentration (MBC) was determined as previously described with minor modifications. Briefly, bacteria were cultured in the mid-log phase and diluted to 5 × 10^5 colony-forming unit (CFU)/mL in 10 mM sodium phosphate buffer (pH 7.4) with a 1% volume of TS broth. They were incubated for 1 h with various peptides which were two-fold diluted serially from 64 μg/mL to 0 μg/mL concentrations in a 96-well plate. The samples were inoculated TS agar plate and incubated overnight at 37 °C. The value of MBC was determined at the lowest concentrations at which no colonies were identified.
(§2) We used the CFU counting method to measure antibacterial activity, with all bacteria cultured to the mid-log phase in an appropriate broth medium. Bacterial CFUs were counted after overnight culture at 37 °C on TS or LB agar plates. The MBC value and antibacterial activity in blood components were determined as previously described. Mouse and human whole blood were collected and diluted with PBS (pH 7.4) to measure the ex vivo antibacterial activity of AMPR-22. For that test, AMPR-22 (10 μg) was added to each whole blood solution and incubated at 37 °C with shaking at 200 rpm. At each time point, it was incubated with bacteria (1 × 10^3 CFU) for 30 min. Each sample was inoculated on an LB agar plate, and CFU counting was performed. To measure the in vivo activity of AMPR-22, 1 × 10^8 CFU of bacteria were injected into BALB/c mice, and an hour later, 10 mg/kg of the test peptides were injected. Blood samples were collected by tail cut, serially diluted with PBS (pH 7.4), and inoculated on LB-agar plates, followed by CFU counting. To estimate the functional half-life of AMPR-22, 40 mg/kg of each tested peptide were injected into mice. Whole blood sampling was performed by cardiac puncture, and the plasma was isolated by centrifugation (2000× g, 15 min). The isolated plasma was incubated with bacteria (1 × 10^3 CFU) for an hour, and then the CFU counting method was performed.

[2] = tested on: Pseudomonas aeruginosa ATCC 27853; format: cell-based; conditions: ATCC 27853, 1 h
Procedure: as §1, §2

[3] = tested on: Staphylococcus aureus ATCC 29213; format: cell-based; conditions: ATCC 29213, 1 h, pH 7.4
Procedure: as §1, §2

[4] = tested on: Methicillin-resistant S. aureus (MRSA) ATCC 33591; format: cell-based, Staphylococcus aureus; conditions: ATCC 33591, 1 h
Procedure: as §1, §2

## CC[C@H](C)[C@H](NC(=O)CNC(=O)[C@H](CCSC)NC(=O)CNC(=O)[C@@H](NC(=O)[C@H](CCSC)NC(=O)[C@H](Cc1ccccc1)NC(=O)[C@@H](NC(=O)CNC(=O)[C@H](Cc1ccccc1)NC(=O)[C@H](CCCCN)NC(=O)CNC(=O)CNC(=O)[C@H](CCCCN)NC(=O)[C@H](CCCCN)NC(=O)[C@H](CCSC)NC(=O)[C@H](CCSC)NC(=O)[C@H](CCCCN)NC(=O)[C@@H](N)CCCCN)[C@@H](C)O)[C@@H](C)CC)C(=O)N[C@@H](CCCNC(=N)N)C(=O)O [d72A] (H-KKMMKKGGKFGTFMIGMGIR-OH)
[1]
  MBC Value, CRPA: 4 µg/mL (≈ 1.78 µM)
[2]
  MBC Value, P. aeruginosa: 2 µg/mL (≈ 0.89 µM)
[3]
  MBC Value, S. aureus: 2 µg/mL (≈ 0.89 µM)
[4]
  MBC Value, MRSA: 2 µg/mL (≈ 0.89 µM)

## CC[C@H](C)[C@H](NC(=O)CNC(=O)[C@H](CCSC)NC(=O)CNC(=O)[C@@H](NC(=O)[C@H](C)NC(=O)[C@H](CCSC)NC(=O)[C@H](Cc1ccccc1)NC(=O)[C@@H](NC(=O)CNC(=O)[C@H](Cc1ccccc1)NC(=O)[C@@H](NC(=O)CNC(=O)CNC(=O)[C@H](CCCCN)NC(=O)[C@H](CCCCN)NC(=O)[C@H](CCSC)NC(=O)[C@H](CCSC)NC(=O)[C@H](CCCCN)NC(=O)[C@@H](N)CCCCN)[C@@H](C)O)[C@@H](C)O)[C@@H](C)CC)C(=O)N[C@@H](CCCNC(=N)N)C(=O)O [K3] (H-KKMMKKGGTFGTFMAIGMGIR-OH)
[1]
  MBC Value, CRPA: 8 µg/mL (≈ 3.49 µM)
[2]
  MBC Value, P. aeruginosa: 8 µg/mL (≈ 3.49 µM)
[3]
  MBC Value, S. aureus: 16 µg/mL (≈ 6.98 µM)
[4]
  MBC Value, MRSA: 32 µg/mL (≈ 14 µM)

## CC[C@H](C)[C@H](NC(=O)CNC(=O)[C@H](CCSC)NC(=O)CNC(=O)[C@@H](NC(=O)[C@H](C)NC(=O)[C@H](CCSC)NC(=O)[C@H](Cc1ccccc1)NC(=O)[C@@H](NC(=O)CNC(=O)[C@H](Cc1ccccc1)NC(=O)[C@H](CCCCN)NC(=O)CNC(=O)[C@H](CCCCN)NC(=O)[C@H](CCCCN)NC(=O)[C@H](CCSC)NC(=O)[C@H](CCSC)NC(=O)[C@H](CCCCN)NC(=O)[C@@H](N)CCCCN)[C@@H](C)O)[C@@H](C)CC)C(=O)N[C@@H](CCCNC(=N)N)C(=O)O [d64G] (H-KKMMKKGKFGTFMAIGMGIR-OH)
[1]
  MBC Value, CRPA: 4 µg/mL (≈ 1.77 µM)
[2]
  MBC Value, P. aeruginosa: 2 µg/mL (≈ 0.885 µM)
[3]
  MBC Value, S. aureus: 2 µg/mL (≈ 0.885 µM)
[4]
  MBC Value, MRSA: 1 µg/mL (≈ 0.442 µM)

## CC[C@H](C)[C@H](NC(=O)CNC(=O)[C@H](CCSC)NC(=O)CNC(=O)[C@@H](NC(=O)[C@H](C)NC(=O)[C@H](CCSC)NC(=O)[C@H](Cc1ccccc1)NC(=O)[C@@H](NC(=O)CNC(=O)[C@H](Cc1ccccc1)NC(=O)[C@@H](NC(=O)CNC(=O)CNC(=O)[C@H](CO)NC(=O)[C@H](CCCCN)NC(=O)[C@H](CCSC)NC(=O)[C@H](CCSC)NC(=O)[C@H](CCCCN)NC(=O)[C@@H](N)CCCCN)[C@@H](C)O)[C@@H](C)O)[C@@H](C)CC)C(=O)N[C@@H](CCCNC(=N)N)C(=O)O [K2] (H-KKMMKSGGTFGTFMAIGMGIR-OH)
[1]
  MBC Value, CRPA: 16 µg/mL (≈ 7.11 µM)
[2]
  MBC Value, P. aeruginosa: 16 µg/mL (≈ 7.11 µM)
[3]
  MBC Value, S. aureus: 32 µg/mL (≈ 14.2 µM)
[4]
  MBC Value, MRSA: 64 µg/mL (≈ 28.4 µM)

## CC[C@H](C)[C@H](NC(=O)CNC(=O)[C@H](CCSC)NC(=O)CNC(=O)[C@@H](NC(=O)[C@H](C)NC(=O)[C@H](CCSC)NC(=O)[C@@H](NC(=O)CNC(=O)[C@H](Cc1ccccc1)NC(=O)[C@H](CCCCN)NC(=O)CNC(=O)CNC(=O)[C@H](CCCCN)NC(=O)[C@H](CCCCN)NC(=O)[C@H](CCSC)NC(=O)[C@H](CCSC)NC(=O)[C@H](CCCCN)NC(=O)[C@@H](N)CCCCN)[C@@H](C)O)[C@@H](C)CC)C(=O)N[C@@H](CCCNC(=N)N)C(=O)O [d70F] (H-KKMMKKGGKFGTMAIGMGIR-OH)
[1]
  MBC Value, CRPA: >256 µg/mL
[2]
  MBC Value, P. aeruginosa: 128 µg/mL (≈ 59 µM)
[4]
  MBC Value, MRSA: 128 µg/mL (≈ 59 µM)

## CC[C@H](C)[C@H](NC(=O)[C@H](C)NC(=O)[C@H](CCSC)NC(=O)[C@H](Cc1ccccc1)NC(=O)[C@@H](NC(=O)CNC(=O)[C@H](Cc1ccccc1)NC(=O)[C@H](CCCCN)NC(=O)CNC(=O)CNC(=O)[C@H](CCCCN)NC(=O)[C@H](CCCCN)NC(=O)[C@H](CCSC)NC(=O)[C@H](CCSC)NC(=O)[C@H](CCCCN)NC(=O)[C@@H](N)CCCCN)[C@@H](C)O)C(=O)NCC(=O)N[C@@H](CCSC)C(=O)N[C@H](C(=O)N[C@@H](CCCNC(=N)N)C(=O)O)[C@@H](C)CC [d76G] (H-KKMMKKGGKFGTFMAIGMIR-OH)
[1]
  MBC Value, CRPA: 4 µg/mL (≈ 1.77 µM)
[2]
  MBC Value, P. aeruginosa: 4 µg/mL (≈ 1.77 µM)
[3]
  MBC Value, S. aureus: 4 µg/mL (≈ 1.77 µM)
[4]
  MBC Value, MRSA: 4 µg/mL (≈ 1.77 µM)

## CC[C@H](C)[C@H](NC(=O)CNC(=O)[C@H](CCSC)NC(=O)CNC(=O)[C@H](C)NC(=O)[C@H](CCSC)NC(=O)[C@H](Cc1ccccc1)NC(=O)[C@@H](NC(=O)CNC(=O)[C@H](Cc1ccccc1)NC(=O)[C@H](CCCCN)NC(=O)CNC(=O)CNC(=O)[C@H](CCCCN)NC(=O)[C@H](CCCCN)NC(=O)[C@H](CCSC)NC(=O)[C@H](CCSC)NC(=O)[C@H](CCCCN)NC(=O)[C@@H](N)CCCCN)[C@@H](C)O)C(=O)N[C@@H](CCCNC(=N)N)C(=O)O [d73I] (H-KKMMKKGGKFGTFMAGMGIR-OH)
[1]
  MBC Value, CRPA: >256 µg/mL
[2]
  MBC Value, P. aeruginosa: >256 µg/mL
[4]
  MBC Value, MRSA: >256 µg/mL

## CC[C@H](C)[C@H](NC(=O)CNC(=O)[C@H](CCSC)NC(=O)CNC(=O)[C@@H](NC(=O)[C@H](C)NC(=O)[C@H](CCSC)NC(=O)[C@H](Cc1ccccc1)NC(=O)CNC(=O)[C@H](Cc1ccccc1)NC(=O)[C@H](CCCCN)NC(=O)CNC(=O)CNC(=O)[C@H](CCCCN)NC(=O)[C@H](CCCCN)NC(=O)[C@H](CCSC)NC(=O)[C@H](CCSC)NC(=O)[C@H](CCCCN)NC(=O)[C@@H](N)CCCCN)[C@@H](C)CC)C(=O)N[C@@H](CCCNC(=N)N)C(=O)O [d69T] (H-KKMMKKGGKFGFMAIGMGIR-OH)
[1]
  MBC Value, CRPA: 4 µg/mL (≈ 1.8 µM)
[2]
  MBC Value, P. aeruginosa: 4 µg/mL (≈ 1.8 µM)
[3]
  MBC Value, S. aureus: 2 µg/mL (≈ 0.902 µM)
[4]
  MBC Value, MRSA: 1 µg/mL (≈ 0.451 µM)

## CC[C@H](C)[C@H](NC(=O)CNC(=O)[C@H](CCSC)NC(=O)CNC(=O)[C@@H](NC(=O)[C@H](C)NC(=O)[C@H](CCSC)NC(=O)[C@H](Cc1ccccc1)NC(=O)[C@@H](NC(=O)CNC(=O)[C@H](Cc1ccccc1)NC(=O)[C@H](CCCCN)NC(=O)CNC(=O)CNC(=O)[C@H](CCCCN)NC(=O)[C@H](CCSC)NC(=O)[C@H](CCSC)NC(=O)[C@H](CCCCN)NC(=O)[C@@H](N)CCCCN)[C@@H](C)O)[C@@H](C)CC)C(=O)N[C@@H](CCCNC(=N)N)C(=O)O [d62K] (H-KKMMKGGKFGTFMAIGMGIR-OH)
[1]
  MBC Value, CRPA: 8 µg/mL (≈ 3.65 µM)
[2]
  MBC Value, P. aeruginosa: 2 µg/mL (≈ 0.913 µM)
[3]
  MBC Value, S. aureus: 8 µg/mL (≈ 3.65 µM)
[4]
  MBC Value, MRSA: 8 µg/mL (≈ 3.65 µM)

## CC[C@H](C)[C@H](NC(=O)CNC(=O)[C@H](CCSC)NC(=O)CNC(=O)[C@@H](NC(=O)[C@H](C)NC(=O)[C@H](CCSC)NC(=O)[C@H](Cc1ccccc1)NC(=O)[C@@H](NC(=O)CNC(=O)[C@H](Cc1ccccc1)NC(=O)[C@H](CCCCN)NC(=O)CNC(=O)CNC(=O)[C@H](CCCCN)NC(=O)[C@H](CCCCN)NC(=O)[C@H](CCSC)NC(=O)[C@H](CCSC)NC(=O)[C@@H](N)CCCCN)[C@@H](C)O)[C@@H](C)CC)C(=O)N[C@@H](CCCNC(=N)N)C(=O)O [d58K] (H-KMMKKGGKFGTFMAIGMGIR-OH)
[1]
  MBC Value, CRPA: 8 µg/mL (≈ 3.65 µM)
[2]
  MBC Value, P. aeruginosa: 2 µg/mL (≈ 0.913 µM)
[3]
  MBC Value, S. aureus: 8 µg/mL (≈ 3.65 µM)
[4]
  MBC Value, MRSA: 2 µg/mL (≈ 0.913 µM)
